Our source for the IC50 values is patent publication US12492188B2, “1H-benzo[D]imidazole derivatives as TLR9 inhibitors for the treatment of fibrosis” (BRISTOL-MYERS SQUIBB COMPANY, priority 2020, dated 2025).

Read-outs that look alike come from different tables or passages of the source.

Holding throughout (type): cell-based
One assay deals with T1, human TLR7 (Homo sapiens, UniProt Q9NYK1).
T1 construct: host or cells: HEK-Blue cells (HEK293-derived reporter line)
T1 sequence (Q9NYK1 27-1049): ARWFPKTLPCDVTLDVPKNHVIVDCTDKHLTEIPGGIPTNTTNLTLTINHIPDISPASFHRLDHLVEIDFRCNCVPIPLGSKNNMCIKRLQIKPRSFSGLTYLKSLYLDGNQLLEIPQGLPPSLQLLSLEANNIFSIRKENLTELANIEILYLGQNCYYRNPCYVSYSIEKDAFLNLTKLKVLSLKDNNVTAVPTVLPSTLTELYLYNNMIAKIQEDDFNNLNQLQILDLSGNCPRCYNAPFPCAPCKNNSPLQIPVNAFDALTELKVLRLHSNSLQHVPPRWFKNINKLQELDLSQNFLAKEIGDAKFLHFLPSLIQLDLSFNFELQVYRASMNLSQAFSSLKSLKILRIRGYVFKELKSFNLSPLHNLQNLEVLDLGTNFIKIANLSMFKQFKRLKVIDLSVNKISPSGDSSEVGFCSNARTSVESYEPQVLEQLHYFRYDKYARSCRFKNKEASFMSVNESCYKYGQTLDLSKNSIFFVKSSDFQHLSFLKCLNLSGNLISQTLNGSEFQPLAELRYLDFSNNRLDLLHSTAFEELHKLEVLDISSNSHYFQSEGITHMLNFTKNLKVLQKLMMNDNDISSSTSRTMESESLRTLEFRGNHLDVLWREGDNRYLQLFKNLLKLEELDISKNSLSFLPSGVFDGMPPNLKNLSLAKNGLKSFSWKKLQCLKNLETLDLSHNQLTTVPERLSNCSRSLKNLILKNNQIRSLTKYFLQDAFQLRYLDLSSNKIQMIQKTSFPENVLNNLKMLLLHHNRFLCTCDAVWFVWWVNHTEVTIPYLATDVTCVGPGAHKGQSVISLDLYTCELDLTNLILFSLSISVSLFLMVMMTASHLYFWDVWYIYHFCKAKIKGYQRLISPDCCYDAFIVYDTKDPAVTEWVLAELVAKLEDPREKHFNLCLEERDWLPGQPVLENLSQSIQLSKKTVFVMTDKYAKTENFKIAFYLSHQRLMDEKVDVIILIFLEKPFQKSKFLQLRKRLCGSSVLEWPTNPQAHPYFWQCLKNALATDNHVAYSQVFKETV
The assay can be described thus: TLR7 inhibition reporter assay (HEK-Blue cells, secreted embryonic alkaline phosphatase reporter). As to conditions: HEK-Blue cells overexpressing human TLR7, stimulated with gardiquimod 7.5 μM; read-out: TLR 7 IC50. The gist of the method:
(§1)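 Read-out is SEAP colour from HEK-Blue Detection medium after 22 h at 37 °C, converted to percent inhibition between agonist-plus-DMSO and reference-inhibitor wells. Receptor-overexpressing HEK-Blue cells received compound over 0.05 nM–50 μM for 30 min before agonist: gardiquimod 7.5 μM for TLR7, R848 15.9 μM for TLR8, ODN2006 5 nM for TLR9.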
A general note: In a reporter assay the amount or activity of a reporter protein is the signal.

The target in the next assay is T2, human TLR9 (Homo sapiens, UniProt Q9NR96).
T2 construct: host or cells: HEK-Blue cells (HEK293-derived reporter line)
T2 sequence (Q9NR96 26-1032): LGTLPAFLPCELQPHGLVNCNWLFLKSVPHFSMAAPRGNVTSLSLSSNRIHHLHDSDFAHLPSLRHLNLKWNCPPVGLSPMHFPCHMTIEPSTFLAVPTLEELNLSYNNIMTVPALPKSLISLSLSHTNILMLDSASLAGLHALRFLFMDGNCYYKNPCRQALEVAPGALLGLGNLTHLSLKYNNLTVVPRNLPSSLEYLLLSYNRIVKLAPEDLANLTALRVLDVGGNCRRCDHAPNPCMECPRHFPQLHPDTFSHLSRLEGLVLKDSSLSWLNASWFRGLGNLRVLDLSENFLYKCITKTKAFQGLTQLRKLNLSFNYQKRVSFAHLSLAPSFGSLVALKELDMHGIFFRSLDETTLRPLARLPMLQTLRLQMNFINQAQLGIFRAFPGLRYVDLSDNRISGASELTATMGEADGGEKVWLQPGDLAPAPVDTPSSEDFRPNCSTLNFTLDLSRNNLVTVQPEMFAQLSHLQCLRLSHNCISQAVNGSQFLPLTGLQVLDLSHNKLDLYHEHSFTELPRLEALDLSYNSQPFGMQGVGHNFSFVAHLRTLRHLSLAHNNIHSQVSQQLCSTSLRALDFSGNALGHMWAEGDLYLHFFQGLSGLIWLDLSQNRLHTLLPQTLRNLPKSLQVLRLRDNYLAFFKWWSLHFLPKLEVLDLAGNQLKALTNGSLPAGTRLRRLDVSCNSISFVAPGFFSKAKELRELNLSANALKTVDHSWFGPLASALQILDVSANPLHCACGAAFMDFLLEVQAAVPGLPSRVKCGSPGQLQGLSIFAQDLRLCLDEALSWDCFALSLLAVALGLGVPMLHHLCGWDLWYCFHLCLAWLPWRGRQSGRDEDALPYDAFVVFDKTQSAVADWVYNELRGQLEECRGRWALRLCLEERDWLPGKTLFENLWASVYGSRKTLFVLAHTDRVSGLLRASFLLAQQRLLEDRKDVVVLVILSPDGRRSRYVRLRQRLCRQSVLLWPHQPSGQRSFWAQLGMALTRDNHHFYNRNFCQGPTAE
The assay can be described thus: TLR9 inhibition reporter assay (HEK-Blue cells, secreted embryonic alkaline phosphatase reporter). The gist of the method:
as §1

For the next assay, the target named is T3, human TLR8 (Homo sapiens, UniProt Q9NR97).
T3 construct: host or cells: HEK-Blue cells (HEK293-derived reporter line)
T3 sequence (Q9NR97 27-1041): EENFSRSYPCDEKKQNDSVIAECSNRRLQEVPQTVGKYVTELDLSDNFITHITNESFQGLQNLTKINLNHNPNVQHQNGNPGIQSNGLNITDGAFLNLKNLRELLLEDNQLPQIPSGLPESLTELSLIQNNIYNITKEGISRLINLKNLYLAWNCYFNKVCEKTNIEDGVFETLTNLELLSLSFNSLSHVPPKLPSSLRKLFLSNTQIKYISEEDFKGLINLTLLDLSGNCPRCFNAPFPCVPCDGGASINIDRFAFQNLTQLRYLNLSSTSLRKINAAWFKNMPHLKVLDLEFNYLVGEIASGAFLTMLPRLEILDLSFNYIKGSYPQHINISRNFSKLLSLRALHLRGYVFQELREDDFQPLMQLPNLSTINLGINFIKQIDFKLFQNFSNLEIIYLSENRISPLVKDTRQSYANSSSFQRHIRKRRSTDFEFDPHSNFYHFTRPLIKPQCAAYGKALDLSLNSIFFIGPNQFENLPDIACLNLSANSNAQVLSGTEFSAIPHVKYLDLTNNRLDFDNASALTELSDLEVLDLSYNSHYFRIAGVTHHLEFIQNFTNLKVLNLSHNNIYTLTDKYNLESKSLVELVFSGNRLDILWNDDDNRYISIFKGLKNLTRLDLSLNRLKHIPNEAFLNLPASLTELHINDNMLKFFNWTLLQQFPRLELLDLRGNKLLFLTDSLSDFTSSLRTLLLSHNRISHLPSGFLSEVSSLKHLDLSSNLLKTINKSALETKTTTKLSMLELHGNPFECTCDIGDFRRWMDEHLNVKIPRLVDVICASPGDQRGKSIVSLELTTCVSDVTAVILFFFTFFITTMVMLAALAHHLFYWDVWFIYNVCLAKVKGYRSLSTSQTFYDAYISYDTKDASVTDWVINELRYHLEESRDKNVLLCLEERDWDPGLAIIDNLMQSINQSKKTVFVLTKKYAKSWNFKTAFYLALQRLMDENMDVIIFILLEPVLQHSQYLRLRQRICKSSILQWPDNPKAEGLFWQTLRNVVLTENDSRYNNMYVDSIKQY
The assay can be described thus: TLR8 inhibition reporter assay (HEK-Blue cells, secreted embryonic alkaline phosphatase reporter). The conditions noted are these: HEK-Blue cells overexpressing human TLR8, stimulated with R848 15.9 μM; read-out: TLR 8 IC50. The gist of the method: as §1

The mark [1] stands for this setting: HEK-Blue cells overexpressing human TLR9, stimulated with ODN2006 5 nM, read-out: TLR 9 IC50.

In the case of `Cn1c(-c2ccc(S(C)(=O)=O)cc2)nc2cc(C3CCN(C4CCN(C5CC5)CC4)CC3)c(F)cc21` [Example 241, 5-(1′-cyclopropyl-[1,4′-bipiperidin]-4-yl)-6-fluoro-1-methyl-2-(4-(methylsulfonyl)phenyl)-1H-benzo[d]imidazole], the IC50 (commonly the midpoint of a concentration-inhibition curve) on human TLR7 is over 50000 nM; on human TLR9, 1700 nM; at human TLR9 (setting [1]), 1710 nM; on human TLR8, over 50000 nM.
As for `Cn1c(-c2ccc(S(C)(=O)=O)cc2)nc2cc(C3CCN(C4CCN(CC5CC5)CC4)CC3)c(F)cc21` [Example 242, 5-(1′-(cyclopropylmethyl)-[1,4′-bipiperidin]-4-yl)-6-fluoro-1-methyl-2-(4-(methylsulfonyl)phenyl)-1H-benzo[d]imidazole], the IC50 at human TLR7 was 14200 nM; at human TLR9, 160 nM; at human TLR9 (setting [1]) it was 158 nM; at human TLR8, over 50000 nM.
Taken in the same sequence, the figures for `Cn1c(-c2ccc(S(C)(=O)=O)cc2)nc2cc(C3CCN(C4CCN(C5CCC5)CC4)CC3)c(F)cc21` [Example 243, 5-(1′-cyclobutyl-[1,4′-bipiperidin]-4-yl)-6-fluoro-1-methyl-2-(4-(methylsulfonyl)phenyl)-1H-benzo[d]imidazole] were over 50000 nM, 940 nM, 943 nM and over 50000 nM.
Take `Cn1c(-c2ccc(S(C)(=O)=O)cc2)nc2cc(C3CCN(C4CCN(C5COC5)CC4)CC3)c(F)cc21` [Example 244, 6-fluoro-1-methyl-2-(4-(methylsulfonyl)phenyl)-5-(1′-(oxetan-3-yl)-[1,4′-bipiperidin]-4-yl)-1H-benzo[d]imidazole]: the IC50 at human TLR7 was over 50000 nM; on human TLR9, 3600 nM; on human TLR9 (setting [1]), 3570 nM; at human TLR8 it was over 50000 nM.
`Cn1c(-c2ccc(S(C)(=O)=O)cc2)nc2cc(C3CCN(C4CCN(C5CCOCC5)CC4)CC3)c(F)cc21` [Example 245, 6-fluoro-1-methyl-2-(4-(methylsulfonyl)phenyl)-5-(1′-(tetrahydro-2H-pyran-4-yl)-[1,4′-bipiperidin]-4-yl)-1H-benzo[d]imidazole]: the IC50 on human TLR7 is over 50000 nM; at human TLR9, 1100 nM; at human TLR9 (setting [1]) it was 1060 nM; on human TLR8, over 50000 nM.
As for `COCCN1CCC(N2CCC(c3cc4nc(-c5ccc(S(C)(=O)=O)cc5)n(C)c4cc3F)CC2)CC1` [Example 246, 6-fluoro-5-(1′-(2-methoxyethyl)-[1,4′-bipiperidin]-4-yl)-1-methyl-2-(4-(methylsulfonyl)phenyl)-1H-benzo[d]imidazole], the IC50 at human TLR7 is 26200 nM; at human TLR9 it was 400 nM; at human TLR9 (setting [1]), 398 nM; at human TLR8 it was over 50000 nM.
Taken in the same sequence, the figures for `CC(C)CN1C2CCC1CC(N1CCC(c3cc4nc(-c5ccc(S(C)(=O)=O)cc5)n(C)c4cc3F)CC1)C2` (stereo not shown) [Example 247, 6-fluoro-5-(1-(8-isobutyl-8-azabicyclo[3.2.1]octan-3-yl)piperidin-4-yl)-1-methyl-2-(4-(methylsulfonyl)phenyl)-1H-benzo[d]imidazole] were 21100 nM, 30 nM, 30 nM and over 50000 nM.
In the case of `CC(C)CN1C2CCC1CC(N1CCC(c3cc4nc(-c5ccc(S(C)(=O)=O)cc5)n(C)c4cc3F)CC1)C2` (stereo not shown) [Example 248, 6-fluoro-5-(1-(8-isobutyl-8-azabicyclo[3.2.1]octan-3-yl)piperidin-4-yl)-1-methyl-2-(4-(methylsulfonyl)phenyl)-1H-benzo[d]imidazole], the IC50 on human TLR7 was over 50000 nM; against human TLR9 it was 78 nM; on human TLR9 (setting [1]), 78 nM; at human TLR8, over 50000 nM.
As to `Cn1c(-c2ccc(S(C)(=O)=O)cc2)nc2cc(C3CCN(C4CC5CCC(C4)N5C4CCC4)CC3)c(F)cc21` (stereo not shown) [Example 251, 5-(1-(8-cyclobutyl-8-azabicyclo[3.2.1]octan-3-yl)piperidin-4-yl)-6-fluoro-1-methyl-2-(4-(methylsulfonyl)phenyl)-1H-benzo[d]imidazole], the IC50 was 19500 nM on human TLR7, 71 nM at human TLR9, 71 nM at human TLR9 (setting [1]) and over 50000 nM on human TLR8.
For `COCCN1C2CCC1CC(N1CCC(c3cc4nc(-c5ccc(S(C)(=O)=O)cc5)n(C)c4cc3F)CC1)C2` (stereo not shown) [Example 257, 6-fluoro-5-(1-(8-(2-methoxyethyl)-8-azabicyclo[3.2.1]octan-3-yl)piperidin-4-yl)-1-methyl-2-(4-(methylsulfonyl)phenyl)-1H-benzo[d]imidazole], the IC50 on human TLR7 is 30700 nM; at human TLR9, 49 nM; at human TLR9 (setting [1]), 49 nM; on human TLR8, over 50000 nM.
